According to patent US20210230179A1, “THIENO[2,3-B]PYRIDINE DERIVATIVES AS EPAC INHIBITORS AND THEIR PHARMACEUTICAL USES” (INSTITUT NATIONAL DE LA SANTE ET DE LA RECHERCHE MEDICALE …, priority 2018, published 2021):
Substitutions are numbered along the chain they refer to. One block for each compound: values may come before it.

What was measured:
Epac1 [1] = target: T1, Epac1 (Homo sapiens, UniProt O95398); test: Rap1-GTP in HEK293 cells transfected with Epac1; format: cell-based; design: expressed in transfected cells; host or cells: HEK293; conditions: 10 min; for inhibition of Epac1-induced Rap1 activation: 20 μM, 30 min preincubation, 8-CPT-AM 10 μM
T1 sequence (O95398 1-923): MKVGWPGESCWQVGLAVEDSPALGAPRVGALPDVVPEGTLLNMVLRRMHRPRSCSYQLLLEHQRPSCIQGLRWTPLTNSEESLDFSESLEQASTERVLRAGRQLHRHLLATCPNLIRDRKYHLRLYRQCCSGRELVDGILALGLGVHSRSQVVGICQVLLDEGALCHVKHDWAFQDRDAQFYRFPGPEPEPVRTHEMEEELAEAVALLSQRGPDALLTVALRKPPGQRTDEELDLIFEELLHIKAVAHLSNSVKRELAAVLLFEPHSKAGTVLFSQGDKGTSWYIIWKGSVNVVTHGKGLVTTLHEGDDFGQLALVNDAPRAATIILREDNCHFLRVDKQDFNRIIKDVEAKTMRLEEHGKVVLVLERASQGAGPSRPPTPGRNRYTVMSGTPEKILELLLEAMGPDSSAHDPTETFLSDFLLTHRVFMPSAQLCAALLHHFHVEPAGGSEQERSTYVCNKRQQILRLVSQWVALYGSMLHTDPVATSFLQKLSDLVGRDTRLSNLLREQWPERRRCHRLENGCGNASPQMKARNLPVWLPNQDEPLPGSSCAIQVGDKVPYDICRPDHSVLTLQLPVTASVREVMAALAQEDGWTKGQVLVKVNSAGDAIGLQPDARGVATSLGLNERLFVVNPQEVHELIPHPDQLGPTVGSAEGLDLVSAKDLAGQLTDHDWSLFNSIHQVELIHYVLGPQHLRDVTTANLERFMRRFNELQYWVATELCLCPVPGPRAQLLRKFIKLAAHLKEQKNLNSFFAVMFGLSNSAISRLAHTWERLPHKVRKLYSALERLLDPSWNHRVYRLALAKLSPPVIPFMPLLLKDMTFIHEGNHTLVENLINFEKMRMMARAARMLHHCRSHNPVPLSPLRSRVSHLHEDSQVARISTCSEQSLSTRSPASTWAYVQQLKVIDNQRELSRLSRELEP
Experimental: FIGS. 9-13. Amounts of Rap1-GTP (n=5 in each group, mean±S.E.M) were determined in HEK293 cells transfected with Epac1 (FIGS. 9-11), Epac2A (FIG. 12) or Epac2B (FIG. 13). Cells were preincubated or not with AM-001 (FIGS. 9, 12, and 13), AM-002 (FIG. 10) or AM-003 (FIG. 11) (20 μM, 30 min) and were then treated or not with 8-CPT-AM (10 μM for Epac1 activation and 20 μM for Epac2A activation) or S-220 (50 μM for Epac2B activation) for 10 min. ESI-05 was used as positive control of Epac2A inhibition. Representative immunoblots are shown. […], *[…], ***p<0.001, ****p<0.0001, versus indicated values, one way ANOVA, Bonferroni comparison test.
Human Embryonic Kidney cells line (HEK293): HEK293 cells were maintained is in minimal essential medium with FBS (10%) and penicillin-streptomycin (1%). All media, sera, and antibiotics used in cell culture were purchased from Invitrogen.
The human Epac1/Epac2 expression vector was a gift from Dr J. L. Bos. Cells were transfected using Lipofectamine 2000 (Invitrogen) according to the manufacturer's instructions. HEK293 cells were maintained in MEM with FBS (Foetal Bovine Serum; 10%) and penicillin-streptomycin (1%). All media, sera and antibiotics used in cell culture were purchased from Invitrogen (Cergy Pontoise, France). Transient transfection experiments were performed with Lipofectamine 2000 (Invitrogen Life Technologies) in the presence of various amounts of plasmid constructs according to the manufacturer's instructions.
This cell line is commonly used for the evaluation of Epac pharmacological modulators on the cellular signaling of ectopically expressed Epac1 and Epac2 isoforms. […] Next, the inventors investigated the effect of 8-CPT-AM on the two Epac2 splice variants, Epac2A and Epac2B (FIGS. 12-13).

Epac1-BRET sensor CAMYEL = target: T2, Epac1-BRET sensor CAMYEL (Homo sapiens, UniProt O95398, F824A/T823A); test: CAMYEL Epac1-BRET sensor assay (cAMP-induced conformational change); format: biochemical; conditions: for inhibitory activity on Epac1 activation, structure-activity comments: CAMYEL assay, compared with AM-001; for remaining activity at 20 µM: read-out: BRET ratio variation (% of 100 μM cAMP alone)
T2 construct: made in house; host or cells: Prokaryotic expression vector pQE30-CAMYEL; used as cell extract
T2 sequence (O95398 191-923 T823A/F824A limits assumed): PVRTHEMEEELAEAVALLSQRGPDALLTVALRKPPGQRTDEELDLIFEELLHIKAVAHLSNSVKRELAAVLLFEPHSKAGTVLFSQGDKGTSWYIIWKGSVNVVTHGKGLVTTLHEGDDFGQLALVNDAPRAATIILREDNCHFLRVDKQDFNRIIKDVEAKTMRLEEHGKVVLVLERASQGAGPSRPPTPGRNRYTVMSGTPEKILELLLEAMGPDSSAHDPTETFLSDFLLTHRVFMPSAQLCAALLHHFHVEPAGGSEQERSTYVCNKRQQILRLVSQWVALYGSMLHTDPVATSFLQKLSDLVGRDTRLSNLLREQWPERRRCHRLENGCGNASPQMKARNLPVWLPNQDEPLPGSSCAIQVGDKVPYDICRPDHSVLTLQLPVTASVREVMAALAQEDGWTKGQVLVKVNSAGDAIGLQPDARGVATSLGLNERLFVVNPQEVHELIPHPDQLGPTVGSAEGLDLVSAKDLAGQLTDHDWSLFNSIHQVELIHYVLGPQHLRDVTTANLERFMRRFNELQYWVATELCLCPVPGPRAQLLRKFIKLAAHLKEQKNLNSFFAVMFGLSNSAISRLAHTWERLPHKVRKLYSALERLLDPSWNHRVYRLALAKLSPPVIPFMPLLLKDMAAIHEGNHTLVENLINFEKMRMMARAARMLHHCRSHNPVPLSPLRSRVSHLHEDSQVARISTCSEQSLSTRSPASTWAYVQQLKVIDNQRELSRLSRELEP

mice = conditions: single i.v. bolus 8 mg/kg 5 min before reperfusion; 45 min occlusion, 24 h reperfusion
Epac1 [2] = target: T3, Epac1 (Homo sapiens, UniProt O95398); test: biochemical
T3 sequence (O95398 191-923 limits assumed): T2 sequence (O95398 191-923 T823A/F824A limits assumed) with A633T, A634F
Excerpt: (§1) FIGS. 4-8. […] Variations of relative fluorescence units (RFU) were studied as a function of time and fitted to single exponentials.

Epac2 = target: T4, Epac2 (Homo sapiens, UniProt Q8WZA2); test: Epac GEF activity assay (b-GDP dissociation from recombinant Rap1), Epac2; format: biochemical
T4 sequence (Q8WZA2 1-867 isoform Q8WZA2-3): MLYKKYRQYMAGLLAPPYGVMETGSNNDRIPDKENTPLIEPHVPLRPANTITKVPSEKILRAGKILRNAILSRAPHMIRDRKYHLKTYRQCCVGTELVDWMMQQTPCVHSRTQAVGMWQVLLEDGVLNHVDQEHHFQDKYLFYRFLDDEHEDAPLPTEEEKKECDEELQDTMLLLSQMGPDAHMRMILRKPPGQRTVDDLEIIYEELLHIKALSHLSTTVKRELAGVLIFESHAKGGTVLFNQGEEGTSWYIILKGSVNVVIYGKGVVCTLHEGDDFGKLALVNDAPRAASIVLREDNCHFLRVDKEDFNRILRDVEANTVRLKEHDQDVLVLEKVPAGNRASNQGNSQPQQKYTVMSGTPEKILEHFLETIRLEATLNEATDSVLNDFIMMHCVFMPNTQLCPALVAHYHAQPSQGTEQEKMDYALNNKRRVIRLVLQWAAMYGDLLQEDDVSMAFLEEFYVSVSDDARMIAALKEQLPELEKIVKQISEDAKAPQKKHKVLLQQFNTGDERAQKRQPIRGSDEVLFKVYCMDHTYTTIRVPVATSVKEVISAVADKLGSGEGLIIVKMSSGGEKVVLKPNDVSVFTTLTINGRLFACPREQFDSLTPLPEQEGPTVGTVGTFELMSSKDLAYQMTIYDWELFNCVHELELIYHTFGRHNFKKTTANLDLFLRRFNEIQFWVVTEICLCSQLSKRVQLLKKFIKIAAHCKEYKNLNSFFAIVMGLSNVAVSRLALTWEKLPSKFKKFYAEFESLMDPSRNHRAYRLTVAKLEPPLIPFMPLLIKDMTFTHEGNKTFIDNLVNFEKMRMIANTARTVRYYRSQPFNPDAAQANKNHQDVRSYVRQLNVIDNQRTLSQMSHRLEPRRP
Excerpt: as §1

Compound: CO[C@@H]1[C@@H]2OP(=O)(OCOC(C)=O)OC[C@H]2O[C@H]1n1c(Sc2ccc(Cl)cc2)nc2c(N)ncnc21 (stereo partly drawn) [8-CPT-AM, 8-(4-chlorophenylthio)-2′-O-methyladenosine-3′,5′-cyclic monophosphate, acetoxymethyl ester]
activation of Rap1 by agonist (Epac1 [1]; cells overexpressing Epac1, 10 μM): robust activation of Rap1

Compound: C[C@@H]1CCc2c(cc(Br)c(F)c2Br)N1C=O [(R)-CE3F4, reference compound]
IC50 (half-maximal inhibitory concentration), BRET sensor (Epac1-BRET sensor CAMYEL; not modified by increasing concentrations of cAMP): lower IC50 than AM-001
ratio of infarct size to area-at-risk (mice): failed to reduce infarct size
effect on Epac1 GEF (exchange) activity (Epac1 [2]; 30 μM Sp-8-CPT, 20 μM inhibitor): reduced

Compound: O=c1c2sc3nc(-c4cccs4)cc(-c4ccccc4)c3c2ncn1-c1ccccc1 [AM-002, reference compound]
inhibition of Epac1-induced Rap1 activation (Epac1 [1]): inactive
inhibitory activity on Epac1 activation, structure-activity comments (Epac1-BRET sensor CAMYEL): no significant inhibitory activity
remaining activity at 20 µM (Epac1-BRET sensor CAMYEL): 93.6%

Compound: CC(C)NC(=O)c1sc2nc(-c3cccs3)cc(-c3ccc(F)cc3)c2c1N [AM-003, reference compound]
inhibition of Epac1-induced Rap1 activation (Epac1 [1]): inactive
inhibitory activity on Epac1 activation, structure-activity comments (Epac1-BRET sensor CAMYEL): abolished the inhibitory effect
remaining activity at 20 µM (Epac1-BRET sensor CAMYEL): 100%

Compound: Nc1c(C(=O)Nc2ccccc2)sc2nc(-c3cccs3)cc(-c3ccccc3)c12 [AM-004]
inhibitory activity on Epac1 activation, structure-activity comments (Epac1-BRET sensor CAMYEL): no significant effect on the inhibitory potency
remaining activity at 20 µM (Epac1-BRET sensor CAMYEL): 47%

Compound: COC1C2OP(O)(=S)OCC2OC1n1c(Sc2ccc(Cl)cc2)nc2c(N)ncnc21 (stereo not drawn) [Sp-8-CPT, 8-(4-Chlorophenylthio)-2′-O-methyladenosine-3′,5′-cyclic monophosphorothioate, Sp-isomer]
EC50 (Epac2): 5.6 ± 1.1 µM
EC50 (Epac1 [2]): 7.5 ± 1.1 µM
Vmax of Sp-8-CPT-activated Epac1 relative to cAMP-activated Epac1 (Epac1 [2]): 2.5 fold
apparent affinity of Epac1, Sp-8-CPT relative to cAMP (Epac1 [2]; higher for Sp-8-CPT than for cAMP): 1.7 times

Compound: Nc1ncnc2c1ncn2[C@@H]1O[C@@H]2COP(=O)(O)O[C@H]2[C@H]1O [cAMP, cyclic AMP, reference compound]
EC50 (Epac2): 2.8 ± 1.1 µM

Now from value to compound, other results behind:

remaining activity at 20 µM (Epac1-BRET sensor CAMYEL): 46.9%
Compound: Nc1c(C(=O)Nc2ccccc2)sc2nc(-c3cccs3)cc(-c3ccc(F)cc3)c12 [AM-005]
inhibitory activity on Epac1 activation, structure-activity comments (Epac1-BRET sensor CAMYEL): no significant effect on the inhibitory potency

inhibitory activity on Epac1 activation, structure-activity comments (Epac1-BRET sensor CAMYEL): decreased but not abolished
remaining activity at 20 µM (Epac1-BRET sensor CAMYEL): 74%
Compound: NC(=O)c1sc2nc(-c3cccs3)cc(-c3ccc(F)cc3)c2c1N [AM-006]

remaining activity at 20 µM (Epac1-BRET sensor CAMYEL): 80.5%
Compound: Nc1c(C(=O)Nc2ccc(F)cc2)sc2nc3c(c(-c4ccccc4)c12)CCCC3 [AM-007]

remaining activity at 20 µM (Epac1-BRET sensor CAMYEL): 82.2%
Compound: Cc1cc(-c2ccccc2)c2c(N)c(C(=O)Nc3ccccc3)sc2n1 [AM-008]

inhibitory activity on Epac1 activation, structure-activity comments (Epac1-BRET sensor CAMYEL): decreased but not abolished
remaining activity at 20 µM (Epac1-BRET sensor CAMYEL): 82.4%
Compound: Nc1c(C(=O)Nc2ccc(F)cc2)sc2nc(-c3cccs3)ccc12 [AM-009]

inhibitory activity on Epac1 activation, structure-activity comments (Epac1-BRET sensor CAMYEL): low activity
remaining activity at 20 µM (Epac1-BRET sensor CAMYEL): 101%
Compound: Cc1cc(C)c2c(N)c(C(=O)Nc3ccc(F)cc3)sc2n1 [AM-010, reference compound]
